# Source: patent publication US7138546B2, “Compounds and compositions for delivering active agents” (Emisphere Technologies, Inc., priority 2000, dated 2006)
row,melting point [°C],Compound
1,203 to 205,"O=C(COc1ccccc1O)Nc1cc(Cl)ccc1O [Compound 1, N-(5-Chloro-2-hydroxyphenyl)-2-(2-hydroxyphenoxy)acetamide]"
2,154 to 156,"CCOCCC(=O)Nc1cc(Cl)ccc1O [Compound 2, N-(5-Choro-2-hydroxyphenyl)-3-ethoxypropanamide]"
